Test results reported in ChEMBL document CHEMBL5137021, “Organotropic dendrons with high potency as HIV-1, HIV-2 and EV-A71 cell entry inhibitors” (Eur J Med Chem, 2022).

Tests used:
[1] = Cytotoxicity against human MT4 cells assessed as cell viability measured after 5 days by MTS assay; type: toxicity, cell-based; conditions: time 5 day
Enterovirus A71 [2] = assay: Antiviral activity against Enterovirus A71 BrCr harboring VP1_S184T_P246S mutant infected in RD cells assessed as protection against virus induced cytopatheic effect measured after 5 days by MTS assay; type: functional, organism-based
[3] = Cytotoxicity against human RD cells assessed as cell viability measured after 5 days by MTS assay; type: toxicity, cell-based; conditions: time 5 day
[4] = Selectivity index, ratio of CC50 for human RD cells to EC50 for antiviral activity against EV-A71; type: toxicity; conditions: read-out: Ratio CC50/EC50
Enterovirus A71 [5] = assay: Antiviral activity against Enterovirus A71 BrCr harboring VP1_P246S mutant infected in RD cells assessed as protection against virus induced cytopatheic effect measured after 5 days by MTS assay; type: functional, organism-based
[6] = Selectivity index, ratio of CC50 for human MT4 cells to EC50 for antiviral activity against HIV-1 NL4.3; type: toxicity; conditions: read-out: Ratio CC50/EC50
Enterovirus A71 [7] = assay: Antiviral activity against Enterovirus A71 BrCr harboring VP1_S184T mutant infected in RD cells assessed as protection against virus induced cytopatheic effect measured after 5 days by MTS assay; type: functional, organism-based
Enterovirus A71 [8] = assay: Antiviral activity against EV-A71 genotype A BrCr infected in RD cells assessed as protection against virus induced cytopatheic effect measured after 5 days by MTS assay; type: functional, organism-based; conditions: 120 h
Enterovirus A71 [9] = assay: Antiviral activity against EV-A71 infected in RD cells assessed as protection against virus induced cytopatheic effect measured after 5 days by MTS assay; type: functional, organism-based; conditions: Enterovirus A, 120 h
[10] = system: Human immunodeficiency virus 1; assay: Antiviral activity against HIV1 NL4-3 infected in human MT4 cells assessed as protection against virus induced cytopatheic effect measured after 5 days by MTS assay; type: functional, organism-based; conditions: Human immunodeficiency virus 1, NL4-3, MT4, 120 h
[11] = system: Human immunodeficiency virus 2; assay: Antiviral activity against HIV2 ROD infected in human MT4 cells assessed as protection against virus induced cytopatheic effect measured after 5 days by MTS assay; type: functional, organism-based; conditions: Human immunodeficiency virus 2, ROD, MT4, 120 h

| Compound | CC50 at 120 h [1] [µM] | EC50 (Enterovirus A71 [2]) [µM] | CC50 at 120 h [3] [µM] | selectivity ratio [4] | EC50 (Enterovirus A71 [5]) [µM] | selectivity ratio [6] | EC50 (Enterovirus A71 [7]) [nM] | EC50 (Enterovirus A71 [8]) [nM] | EC50 (Enterovirus A71 [9]) [nM] | EC50 [10] [nM] | EC50 [11] [nM] |
| --- | --- | --- | --- | --- | --- | --- | --- | --- | --- | --- | --- |
| O=C(CCC(CCC(=O)NC(Cc1c(-c2cc(C(=O)O)cc(C(=O)O)c2)[nH]c2ccccc12)C(=O)O)(CCC(=O)NC(Cc1c(-c2cc(C(=O)O)cc(C(=O)O)c2)[nH]c2ccccc12)C(=O)O)[N+](=O)[O-])NC(Cc1c(-c2cc(C(=O)O)cc(C(=O)O)c2)[nH]c2ccccc12)C(=O)O (stereo not given) | > 100 | 2.2 | > 75 | > 103 | 1.9 | > 370 | 2300 | 353 | 350 | 270 | 630 |
| NC(CCC(=O)NC(Cc1c(-c2cc(C(=O)O)cc(C(=O)O)c2)[nH]c2ccccc12)C(=O)O)(CCC(=O)NC(Cc1c(-c2cc(C(=O)O)cc(C(=O)O)c2)[nH]c2ccccc12)C(=O)O)CCC(=O)NC(Cc1c(-c2cc(C(=O)O)cc(C(=O)O)c2)[nH]c2ccccc12)C(=O)O (stereo not given) | > 50 |  | > 100 | > 133 |  | > 109 |  |  | 750 | 460 | 100 |
| O=C(CCC(CCC(=O)NC(Cc1c(-c2cc(C(=O)O)cc(C(=O)O)c2)[nH]c2ccccc12)C(=O)O)(CCC(=O)NC(Cc1c(-c2cc(C(=O)O)cc(C(=O)O)c2)[nH]c2ccccc12)C(=O)O)NC(=O)Nc1ccc2c(c1)Cc1ccccc1-2)NC(Cc1c(-c2cc(C(=O)O)cc(C(=O)O)c2)[nH]c2ccccc12)C(=O)O (stereo not given) | > 100 |  | > 100 | > 400 |  | > 1670 |  |  | 250 | 60 | 50 |
| O=C(CCC(CCC(=O)NC(Cc1c(-c2cc(C(=O)O)cc(C(=O)O)c2)[nH]c2ccccc12)C(=O)O)(CCC(=O)NC(Cc1c(-c2cc(C(=O)O)cc(C(=O)O)c2)[nH]c2ccccc12)C(=O)O)NC(=O)Nc1ccc2ccccc2c1)NC(Cc1c(-c2cc(C(=O)O)cc(C(=O)O)c2)[nH]c2ccccc12)C(=O)O (stereo not given) | > 100 |  | > 68 | > 70 |  | > 263 |  |  | 970 | 380 | 220 |
| O=C(CCC(CCC(=O)NC(Cc1c(-c2cc(C(=O)O)cc(C(=O)O)c2)[nH]c2ccccc12)C(=O)O)(CCC(=O)NC(Cc1c(-c2cc(C(=O)O)cc(C(=O)O)c2)[nH]c2ccccc12)C(=O)O)NC(=O)CCCCNC(=O)Nc1cc(C(=O)O)cc(C(=O)O)c1)NC(Cc1c(-c2cc(C(=O)O)cc(C(=O)O)c2)[nH]c2ccccc12)C(=O)O (stereo not given) | > 100 |  | > 300 | > 2000 |  | > 500 |  |  | 150 | 200 | 40 |
| O=C(CCC(CCC(=O)N[C@@H](Cc1c[nH]c2ccccc12)C(=O)O)(CCC(=O)N[C@@H](Cc1c[nH]c2ccccc12)C(=O)O)NC(=O)CCOCC(COCCC(=O)NC(CCC(=O)N[C@@H](Cc1c[nH]c2ccccc12)C(=O)O)(CCC(=O)N[C@@H](Cc1c[nH]c2ccccc12)C(=O)O)CCC(=O)N[C@@H](Cc1c[nH]c2ccccc12)C(=O)O)(COCCC(=O)NC(CCC(=O)N[C@@H](Cc1c[nH]c2ccccc12)C(=O)O)(CCC(=O)N[C@@H](Cc1c[nH]c2ccccc12)C(=O)O)CCC(=O)N[C@@H](Cc1c[nH]c2ccccc12)C(=O)O)COCCC(=O)NC(CCC(=O)N[C@@H](Cc1c[nH]c2ccccc12)C(=O)O)(CCC(=O)N[C@@H](Cc1c[nH]c2ccccc12)C(=O)O)CCC(=O)N[C@@H](Cc1c[nH]c2ccccc12)C(=O)O)N[C@@H](Cc1cc2ccccc2[nH]1)C(=O)O | > 100 | 8.9 | 25 | > 203 | 4.7 | > 43 | 2000 |  | 300 | 2300 | 6600 |
| O=C(CCC(CCC(=O)NC(Cc1c(-c2cc(C(=O)O)cc(C(=O)O)c2)[nH]c2ccccc12)C(=O)O)(CCC(=O)NC(Cc1c(-c2cc(C(=O)O)cc(C(=O)O)c2)[nH]c2ccccc12)C(=O)O)NC(=O)CCCCCCNC(=O)c1cc(O)c2c(c1)C(=O)c1cccc(O)c1C2=O)NC(Cc1c(-c2cc(C(=O)O)cc(C(=O)O)c2)[nH]c2ccccc12)C(=O)O (stereo not given) | > 100 |  | > 100 | > 69 |  | > 32 |  |  | 1430 | 3110 | 710 |
| O=C(CCC(CCC(=O)NC(Cc1c(-c2cc(C(=O)O)cc(C(=O)O)c2)[nH]c2ccccc12)C(=O)O)(CCC(=O)NC(Cc1c(-c2cc(C(=O)O)cc(C(=O)O)c2)[nH]c2ccccc12)C(=O)O)NC(=O)Nc1cccc(C(=O)O)c1)NC(Cc1c(-c2cc(C(=O)O)cc(C(=O)O)c2)[nH]c2ccccc12)C(=O)O (stereo not given) | > 100 |  | > 68 | > 142 |  | > 141 |  |  | 480 | 710 | 110 |
| O=C(CCC(CCC(=O)NC(Cc1c(-c2cc(C(=O)O)cc(C(=O)O)c2)[nH]c2ccccc12)C(=O)O)(CCC(=O)NC(Cc1c(-c2cc(C(=O)O)cc(C(=O)O)c2)[nH]c2ccccc12)C(=O)O)NC(=O)CCCCCCCCCCNC(=O)Nc1cc(C(=O)O)cc(C(=O)O)c1)NC(Cc1c(-c2cc(C(=O)O)cc(C(=O)O)c2)[nH]c2ccccc12)C(=O)O (stereo not given) | > 100 |  | > 100 | > 72 |  | > 25 |  |  | 1380 | 3990 | 960 |
| O=C(CCC(CCC(=O)NC(Cc1c(-c2cc(C(=O)O)cc(C(=O)O)c2)[nH]c2ccccc12)C(=O)O)(CCC(=O)NC(Cc1c(-c2cc(C(=O)O)cc(C(=O)O)c2)[nH]c2ccccc12)C(=O)O)NC(=O)COCCOCCNc1ccc([N+](=O)[O-])cc1[N+](=O)[O-])NC(=O)Cc1c(-c2cc(C(=O)O)cc(C(=O)O)c2)[nH]c2ccccc12 (stereo not given) | > 100 |  | > 100 | > 103 |  | > 12 |  |  | 970 | 8390 | 560 |
| O=C(CCC(CCC(=O)NC(Cc1c(-c2cc(C(=O)O)cc(C(=O)O)c2)[nH]c2ccccc12)C(=O)O)(CCC(=O)NC(Cc1c(-c2cc(C(=O)O)cc(C(=O)O)c2)[nH]c2ccccc12)C(=O)O)NC(=O)CCCCNc1ccc([N+](=O)[O-])cc1[N+](=O)[O-])NC(Cc1c(-c2cc(C(=O)O)cc(C(=O)O)c2)[nH]c2ccccc12)C(=O)O (stereo not given) | > 100 |  | > 100 | > 93 |  | > 28 |  |  | 1070 | 3610 | 130 |
| O=C(CCC(CCC(=O)NC(Cc1c(-c2cc(C(=O)O)cc(C(=O)O)c2)[nH]c2ccccc12)C(=O)O)(CCC(=O)NC(Cc1c(-c2cc(C(=O)O)cc(C(=O)O)c2)[nH]c2ccccc12)C(=O)O)NC(=O)Nc1cc(C(=O)O)cc(C(=O)O)c1)NC(Cc1c(-c2cc(C(=O)O)cc(C(=O)O)c2)[nH]c2ccccc12)C(=O)O (stereo not given) | > 100 |  | > 60 | > 150 |  | > 345 |  |  | 400 | 290 | 90 |
| CCOC(=O)c1ccc(OCCC2CCN(c3ccc(C)nn3)CC2)cc1 [PIRODAVIR] |  |  | > 100 | > 333 |  |  |  |  |  |  |  |
| CN[C@@H]1[C@H](O[C@@H]2OC[C@@H](O)[C@H](O)[C@H]2O)[C@@H](O)[C@H](O[C@H]2c3cc(C)c(C(=O)N[C@H](C)C(=O)O)c(O)c3-c3c(cc4c(c3O)C(=O)c3cc(OC)cc(O)c3C4=O)[C@@H]2O)O[C@@H]1C [PRADIMICIN A] | > 100 |  |  |  |  | > 30 |  |  |  |  |  |
